Test results: US20210253598A1, “ARYL ANNULATED MACROCYCLIC INDOLE DERIVATIVES” (priority 2017, published 2021)
Values joined by “and” are separate entries in the source; they are usually repeats but may differ in a detail not shown here. Equal values may be shown once. Read-outs that look alike come from different tables or passages of the source.

Tests used:
[1] = 11-membered ring
[2] = the molecule shown is the open-chain precursor; crosslinker bond; 11-membered ring; 2,3-bis(chloromethyl)pyrazine/Cs2CO3/NaI; MeCN; 9.09 mM; 70.0 °C
[3] = the molecule shown is the open-chain precursor; crosslinker bond; 11-membered ring; 2,3-bis(chloromethyl)pyridine HCl/Cs2CO3/NaI; MeCN; 73.1 mM; 75.0 °C
MCL-1 = MCL-1 (Homo sapiens, UniProt Q07820, K194A/K197A/R201A); assay: Protein-protein interaction assay MCL-1/Noxa BH3 peptide, TR-FRET (MCL-1 assay, Assay 1); assay type: binding; details: MCL-1 Assay [M] (median), MBP-MCL-1 / Noxa BH3 peptide
Chain of MCL-1 (Q07820 173-321 K194A/K197A/R201A, looked up): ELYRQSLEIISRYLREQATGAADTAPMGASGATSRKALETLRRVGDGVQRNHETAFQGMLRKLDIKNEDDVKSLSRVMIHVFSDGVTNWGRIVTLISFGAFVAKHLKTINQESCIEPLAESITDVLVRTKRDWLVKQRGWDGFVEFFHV
Method in brief: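 TR-FRET competition between compounds and a biotin-PEG Noxa BH3 tracer for 1 nM MBP-MCL-1 (residues 173-321). Incubation was 1 h at 22 °C in the dark, then overnight at 4 °C, in 50 mM Tris pH 7 buffer with KF and DTT, after a 10-min compound pre-equilibration. Normalized ratios were fitted with a 4-parameter Hill equation to give IC50.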

BCL-XL = BCL-XL (Homo sapiens, UniProt Q07817); assay: Protein-protein interaction assay BCL-XL/Bad BH3 peptide, TR-FRET (BCL-XL assay, Assay 2); assay type: binding; details: His-BCL-XL / Bad BH3 peptide, median
Chain of BCL-XL (Q07817 1-212): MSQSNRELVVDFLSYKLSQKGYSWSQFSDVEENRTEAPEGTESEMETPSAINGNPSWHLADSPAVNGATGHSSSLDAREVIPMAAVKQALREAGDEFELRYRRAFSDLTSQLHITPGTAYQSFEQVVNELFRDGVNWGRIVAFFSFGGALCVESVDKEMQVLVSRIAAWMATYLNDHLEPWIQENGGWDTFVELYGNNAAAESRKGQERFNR
Procedure: Protein-Protein Interaction Assay: BCL-XL/Bad BH3 Peptide (BCL-XL Assay)
The dose-dependent inhibition by the compounds described in this invention of the interaction between BCL-XL and the BH3 domain of Bad (both human) was determined using a steady state binding competition assay with time-resolved fluorescence energy transfer (TR-FRET) readout. For that purpose BCL-XL (amino acids 1-212, C-terminal fused to a hexahistidine (6×His) tag (SEQ ID 3) and a synthetic Bad BH3-derived peptide of sequence Biotin-PEG2-PEG2-[sequence]-Nle-[sequence]-amide (SEQ ID 4) served as protein receptor and tracer ligand respectively. The recombinant BCL-XL protein (expressed in E. coli) was purchased from BPS Bioscience (San Diego, Calif., USA). The Bad BH3-derived peptide can be obtained from e.g. Biosyntan (Berlin, Germany).
For that, 100-fold concentrated DMSO solutions were prepared by serial dilutions (1:3.4) of a 2 mM stock solution in a clear, 384-well microtiter plate (Greiner Bio-One, Frickenhausen, Germany). From there, 50 nl were transferred in a dark test plate (Greiner Bio-One, Frickenhausen, Germany). The assay was initiated by addition of 2 μl of a 2,5-fold concentrated His-BCL-XL solution (usually for a 1 nM end concentration in 5 μl reaction volume) in aqueous assay buffer [50 mM Tris/HCl pH 7, 100 mM sodium chloride (NaCl), 50 mM potassium fluoride (KF), 0.005% Tween-20, 2 mM DTT, 0.1% bovine gamma globulin (BGG)] to the compounds in the assay plate. This was followed by a 10-minute incubation step at 22° C. for pre-equilibration of the putative complex between His-BCL-XL and the compounds.
The mixture was incubated in the dark for one hour at 22° C. and then overnight at 4° C. The formation of BCL-XL/Bad complexes was determined by measuring the resonance energy transfer of the anti-His- Eu-cryptate antibody to the streptavidin-XL665 present in the reaction. For that purpose, the fluorescence emission at 620 nm and 665 nm after excitation at 330-350 nm was measured in a TR-FRET measuring instrument, for instance a Rubystar or a Pherastar (both from BMG Lab Technologies, Offenburg, Germany) or a Viewlux (Perkin-Elmer). The ratio of the emission at 665 nm and at 622 nm was used as indicator of the amount of BCL-XL/Bad complexes present.
(§4) The resulting data (ratio) were normalized, taking 0% inhibition as the mean value of control measurements (usually 32 data points) where all reagents were included. In this case 50 nl DMSO were used instead of compounds. […] IC50 values were determined by regression analysis based on a 4 parameter equation (minimum, maximum, IC50, Hill; Y=Max+(Min−Max)/(1+(X/IC50)^Hill) using the Screener Software (Genedata).

BCL-2 = BCL-2 (Homo sapiens, UniProt P10415); assay: Protein-protein interaction assay BCL-2/Bad BH3 peptide, TR-FRET (BCL-2 assay, Assay 3); assay type: binding; details: His-BCL-2 / Bad BH3 peptide, median
Chain of BCL-2 (P10415 1-211): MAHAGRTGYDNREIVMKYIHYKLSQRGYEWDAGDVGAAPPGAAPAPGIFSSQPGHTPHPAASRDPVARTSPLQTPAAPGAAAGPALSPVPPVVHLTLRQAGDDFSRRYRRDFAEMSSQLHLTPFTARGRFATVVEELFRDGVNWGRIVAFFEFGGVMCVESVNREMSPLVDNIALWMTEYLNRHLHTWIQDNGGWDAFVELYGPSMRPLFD
Procedure: The dose-dependent inhibition by the compounds described in this invention of the interaction between BCL-2 and the BH3 domain of Bad (both human) was determined using a steady state binding competition assay with time-resolved fluorescence energy transfer (TR-FRET) readout. For that purpose BCL-2 (amino acids 1-211, C-terminal fused to a hexahistidine (6×His) tag (SEQ ID 5) and a synthetic Bad BH3-derived peptide of sequence Biotin-PEG2-PEG2-[sequence]-Nle-[sequence]-amide (SEQ ID 4) served as protein receptor and tracer ligand respectively. The recombinant BCL-2 protein (expressed in E. coli) was purchased from BPS Bioscience (San Diego, Calif., USA). The Bad BH3-derived peptide can be obtained from e.g. Biosyntan (Berlin, Germany).
For that, 100-fold concentrated DMSO solutions were prepared by serial dilutions (1:3.4) of a 2 mM stock solution in a clear, 384-well microtiter plate (Greiner Bio-One, Frickenhausen, Germany). From there, 50 nl were transferred in a dark test plate (Greiner Bio-One, Frickenhausen, Germany). The assay was initiated by addition of 2 μl of a 2,5-fold concentrated His-BCL-2 solution (usually for a 1 nM end concentration in 5 μl reaction volume) in aqueous assay buffer [50 mM Tris/HCl pH 7, 100 mM sodium chloride (NaCl), 50 mM potassium fluoride (KF), 0.005% Tween-20, 2 mM DTT, 0.1% bovine gamma globulin (BGG)] to the compounds in the assay plate. This was followed by a 10-minute incubation step at 22° C. for pre-equilibration of the putative complex between His-BCL-2 and the compounds.
The mixture was incubated in the dark for one hour at 22° C. and then overnight at 4° C. The formation of BCL-2/Bad complexes was determined by measuring the resonance energy transfer of the anti-His-Eu-cryptate antibody to the streptavidin-XL665 present in the reaction. For that purpose, the fluorescence emission at 620 nm and 665 nm after excitation at 330-350 nm was measured in a TR-FRET measuring instrument, for instance a Rubystar or a Pherastar (both from BMG Lab Technologies, Offenburg, Germany) or a Viewlux (Perkin-Elmer). The ratio of the emission at 665 nm and at 622 nm was used as indicator of the amount of BCL-2/Bad complexes present.
as §4

SUDHL5 [4] = assay: Induction of caspase-3/7 activity in SUDHL5 cells (Assay 4); assay type: cell-based; details: SUDHL5, 3 hours treatment, Caspase-Glo 3/7, median, read-out: Caspase SUDHL5 [M] (median)
Method in brief: (§1)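 Luminescent Caspase-Glo 3/7 read-out in SUDHL5 and SUDHL10 cells after 3 h compound exposure at 37 °C, followed by 1 h reagent incubation.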

SUDHL10 [5] = assay: Induction of caspase-3/7 activity in SUDHL10 cells (Assay 4); assay type: cell-based; details: SUDHL10, 3 hours treatment, Caspase-Glo 3/7, median, read-out: Caspase SUDHL10 [M] (median)
Method in brief: as §1

SUDHL5 [6] = assay: Induction of cytotoxicity in SUDHL5 cells, CellTiter-Glo (Assay 6); assay type: cell-based; details: SUDHL5, 5 hours incubation, median, read-out: Cytotox SUDHL5 [M] (median)
Method in brief: (§2)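 Run alongside apoptosis assays, this cytotoxicity measure used a 5-hour compound incubation at 37° C in humidified conditions, following overnight attachment. Cell viability was quantified by CellTiter-Glo luminescence.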

SUDHL10 [7] = assay: Induction of cytotoxicity in SUDHL10 cells, CellTiter-Glo (Assay 6); assay type: cell-based; details: SUDHL10, 5 hours incubation, median, read-out: Cytotox SUDHL10 [M] (median)
Method in brief: as §2

SUDHL5 [8] = assay: Anti-proliferative effect in SUDHL5 cells, CellTiter-Glo (Assay 7); assay type: cell-based; details: SUDHL5, 72 hours incubation, CellTiter-Glo, median, read-out: Antiproli SUDHL5 [M] (median)
Method in brief: (§3)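 Overnight seeding at 37 °C, then 72 h treatment with compound; day 0 plate read at start. Luminescent ATP-based viability readout (CellTiter-Glo). IC50 normalised between day 0 and DMSO values.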

MV-4-11 = assay: Anti-proliferative effect in MV-4-11 cells, CellTiter-Glo (Assay 7); assay type: cell-based; details: MV-4-11, 72 hours incubation, CellTiter-Glo, several values per example, read-out: Antiproli MV-4-11
Method in brief: as §3

AMO-1 = assay: Anti-proliferative effect in AMO-1 cells, CellTiter-Glo (Assay 7); assay type: cell-based; details: AMO-1, 72 hours incubation, CellTiter-Glo, several values per example, read-out: Antiproli AMO-1
Method in brief: as §3

HMC-1-8 = assay: Anti-proliferative effect in HMC-1-8 cells, CellTiter-Glo (Assay 7); assay type: cell-based; details: HMC-1-8, 72 hours incubation, read-out: Antiproli HMC-1-8
Procedure: Assessment of the Anti-Proliferative Effect of Compounds in Different Cell Lines
The impact of compounds on the proliferation of different cell lines was assessed using the CellTiter-Glo® Luminescent Cell Viability reagent from Promega (G7573).
In parallel, cells were plated in a reference (day 0) plate for time zero determination. Cells were incubated in a humidified incubator at 37° C. overnight.
Rim wells were excluded. The cells were incubated for 72 hours in a humidified incubator at 37° C. The day 0 plate was measured by adding 30 μL/well of CTG solution (CellTiter-Glo® Luminescent Cell Viability reagent, Promega G7573) to time zero wells in the reference plate followed by a 10 minutes incubation and luminescence reading at 0.1 ms. using the PHERAstar FS microplate reader (BMG Labtech).
After 72 hours incubation, the treated plates were measured in the same way as the day 0 plate mentioned above. The Bella DRC Master Sheet was used to calculate IC50s, with CI=day 0 values and C0=DMSO control values.

A2780 = assay: Anti-proliferative effect in A2780 cells, CellTiter-Glo (Assay 7); assay type: cell-based; details: Homo sapiens, A2780, 72 h, A2780, 72 hours incubation, CellTiter-Glo; several values per example; read-out: Antiproli A2780
Method in brief: as §3

Q: What does the source list for `CCOC(=O)c1[nH]c2c(-c3c(CO)nn(C)c3C)c(Cl)ccc2c1CCCOc1cccc2cc(F)ccc12`?
A: ring closure, isolated yield ([1]; the molecule shown is the open-chain precursor, crosslinker bond, 1,2-bis(bromomethyl)benzene/Cs2CO3, MeCN/THF 2:1, 24.3 mM, 80.0 °C): 74%; ring closure, crude yield [2]: 90%

Q: Which ring closure, yield after HPLC [3] does the source give for `CCOC(=O)c1[nH]c2c(-c3c(CO)nn(C)c3C)cccc2c1CCCOc1cccc2ccccc12` here?
A: 20% and 30%

Q: For `CCOC(=O)c1c(CCCOc2cccc3cc(F)ccc23)c2ccc(Cl)c3c2n1Cc1ccccc1COCc1c-3c(CC)nn1CCN1CCOCC1`, which ring closure, isolated yield ([1]; from CCOC(=O)c1c(CCCOc2cccc3cc(F)ccc23)c2ccc(Cl)c(-c3c(CC)nn(CCN4CCOCC4)c3CO)c2n1Cc1ccccc1CBr, ether bond, NaH/di-tert-butyl imidodicarbonate, DMF, 56.1 mM, […]) is on record?
A: 10%

Q: And the ring closure, yield of all isomers (from CCOC(=O)c1c(CCCOc2cccc3cc(F)ccc23)c2ccc(Cl)c(-c3c(CC)nn(CCN4CCOCC4)c3CO)c2n1Cc1ccccc1CBr, ether bond, NaH / di-tert-butyl imidodicarbonate, DMF, 56.1 mM, 50.0 °C, […])?
A: 10%

Q: Which ring closure, isolated yield ([1]; from CCOC(=O)c1c(CCCOc2cccc3ccccc23)c2ccc(Cl)c(-c3c(CO)nn(C)c3C)c2n1Cc1ccccc1CBr, ether bond, NaH/di-tert-butyl imidodicarbonate, THF, 29.9 mM, […]) does the source give for `CCOC(=O)c1c(CCCOc2cccc3ccccc23)c2ccc(Cl)c3c2n1Cc1ccccc1COCc1nn(C)c(C)c1-3` here?
A: 76%

Q: And the ring closure, yield of all isomers (from CCOC(=O)c1c(CCCOc2cccc3ccccc23)c2ccc(Cl)c(-c3c(CO)nn(C)c3C)c2n1Cc1ccccc1CBr, ether bond, sodium hydride / di-tert-butyl imidodicarbonate, THF, 29.9 mM, […], 72.0 h)?
A: 76%

Q: For `CCOC(=O)c1c(CCCOc2cccc3ccccc23)c2cccc3c2n1Cc1ccccc1CNCc1nn(C)c(C)c1-3`, which ring closure, yield of all isomers (from CCOC(=O)c1c(CCCOc2cccc3ccccc23)c2cccc(-c3c(CBr)nn(C)c3C)c2n1Cc1ccccc1CN, amine bond, cesium carbonate, acetonitrile, 30.6 mM, 50.0 °C, 15.0 h) is on record?
A: 47.3%

Q: What does the source list for `Cc1c2c(nn1C)COCc1nccnc1Cn1c(C(=O)O)c(CCCOc3cccc4cc(F)ccc34)c3ccc(Cl)c-2c31` (racemic) [Example 93, (rac)-3-Chloro-17-{3-[(6-fluoronaphthalen-1-yl)oxy]propyl}-4,5-dimethyl-5,7,9,14-tetrahydropyrazino[2′,3′:3,4]pyrazolo[4′,3′:9,10][1,6]oxazacycloundecino[8,7,6-hi]indole-16-carboxylic Acid]?
A: IC50 (MCL-1): 1.5e-09 M; IC50 (BCL-XL): > 20 µM; IC50 (BCL-2): > 20 µM; EC50 (SUDHL5 [4]; Homo sapiens, SU-DHL-5, 3 h): 2.5e-06 M; EC50 (SUDHL10 [5]; Homo sapiens, SU-DHL10, 3 h): 1e-05 M; IC50 (SUDHL5 [6]; Homo sapiens, SU-DHL-5, 5 h): 2.8e-06 M; IC50 (SUDHL10 [7]; Homo sapiens, SU-DHL10, 5 h): 6.7e-06 M; IC50 (SUDHL5 [8]; Homo sapiens, SU-DHL-5, 72 h): 2.5e-06 M; IC50 (MV-4-11; Homo sapiens, MV4-11, 72 h): 15.1 µM; IC50 (AMO-1; Homo sapiens, AMO1, 72 h): 7.19 µM; IC50 (HMC-1-8; 72 h): 32 µM; IC50 (A2780): > 33 µM

Q: Which results are given for `Cc1c2c(nn1C)COCc1nccnc1Cn1c(C(=O)O)c(CCCOc3cccc4ccccc34)c3ccc(Cl)c-2c31` (single isomer, unassigned; enantiomer 1) [Example 46, 3-Chloro-4,5-dimethyl-17-{3-[(naphthalen-1-yl)oxy]propyl}-5,7,9,14-tetrahydropyrazino-[2′,3′:3,4]pyrazolo[4′,3′:9,10][1,6]oxazacycloundecino[8,7,6-hi]indole-16-carboxylic Acid (Enantiomer 1)]?
A: IC50 (BCL-XL): > 20 µM; IC50 (BCL-2): > 20 µM; EC50 (SUDHL5 [4]): 1.8e-06 M; EC50 (SUDHL10 [5]): 7.3e-06 M; IC50 (SUDHL10 [7]): 7e-06 M; IC50 (MV-4-11): 5.27 µM; IC50 (AMO-1; Homo sapiens, AMO1, 72 h): 6.15 µM; IC50 (HMC-1-8; 72 h): 11.9 µM

Q: For `Cc1c2c(nn1C)COCc1nccnc1Cn1c(C(=O)O)c(CCCOc3cccc4ccccc34)c3ccc(Cl)c-2c31` (single isomer, unassigned; enantiomer 2) [Example 47, 3-Chloro-4,5-dimethyl-17-{3-[(naphthalen-1-yl)oxy]propyl}-5,7,9,14-tetrahydropyrazino-[2′,3′:3,4]pyrazolo[4′,3′:9,10][1,6]oxazacycloundecino[8,7,6-hi]indole-16-carboxylic Acid (Enantiomer 2)], which EC50 (SUDHL5 [4]) is on record?
A: 4.7e-06 M

Q: And the EC50 (SUDHL10 [5])?
A: 1.6e-05 M

Q: And the IC50 (SUDHL5 [6])?
A: 4.8e-06 M

Q: And the IC50 (SUDHL10 [7])?
A: 1.9e-05 M

Q: What about the IC50 (SUDHL5 [8]) of the same compound?
A: 4.6e-06 M

Q: What about the IC50 (MV-4-11) of the same compound?
A: 11.7 µM

Q: And the IC50 (AMO-1)?
A: 11.5 µM

Q: And the IC50 (HMC-1-8)?
A: 16.1 µM
